Measurements published in patent publication US9839642B2, “Beta-tetrazolyl-propionic acids as metallo-beta-lactamase inhibitors” (priority 2014, dated 2017).

Key:
IMP-1 = IMP-1 (Serratia marcescens, UniProt P52699); assay: Enzyme activity: determination of IC50, fluorescence assay with CCF2-FA substrate; type: biochemical; settings: enzyme 2 pM, CCF2-FA 1.25 μM, 2 hours at 25° C.; read-out: IMP1 IC50
In short: (§1)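 Enzyme at 1 pM (NDM-1), 2 pM (IMP-1) or 30 pM (VIM-1) was incubated with inhibitor (20 μM to 0.00063 μM) and 1.25 μM CCF2-FA in 100 mM KH2PO4 pH 7, 0.005% Tween-20, 10 μM ZnSO4 for 2 hours at 25° C. Fluorescence was read at ex 405/em 460 nm; IC50 from 4-parameter fit.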

NDM-1 = NDM-1 (Klebsiella pneumoniae, UniProt C7C422); assay: as above; type: biochemical; settings: enzyme 1 pM, CCF2-FA 1.25 μM, 2 hours at 25° C.; read-out: NDM1 IC50
In short: as §1

VIM-1 = VIM-1 (Pseudomonas aeruginosa, UniProt A0A0F7KYQ8); assay: as above; type: biochemical; settings: enzyme 30 pM, CCF2-FA 1.25 μM, 2 hours at 25° C.; read-out: VIM1 IC50
In short: as §1

[1] = system: Escherichia coli expressing NDM-1 (CLB30016); assay: Antibiotic potentiation activity: synergistic concentration (MITC95) with imipenem, growth by OD600; type: cell-based; settings: 95% inhibition of bacterial growth, strain CLB30016
In short: (§2)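 Colonies from overnight agar plates (35 °C) were suspended in saline and diluted 1:100 into 1.1× CAMHB. Inhibitor (final 200 μM to 0.195 μM) was combined with imipenem at 1 or 4 μg/ml, incubated 22–24 h at 35 °C, and absorbance read; MITC95 is the lowest inhibitor concentration giving 95% growth inhibition.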

[2] = system: Klebsiella pneumoniae expressing VIM-1 (IHMA599644); assay: as above; type: cell-based; settings: 95% inhibition of bacterial growth, strain IHMA599644
In short: as §2

[3] = system: Serratia marcescens expressing IMP-1 (CL5741); assay: as above; type: cell-based; settings: 95% inhibition of bacterial growth, strain CL5741
In short: as §2

Chain of IMP-1 (P52699 19-246, looked up, species assumed): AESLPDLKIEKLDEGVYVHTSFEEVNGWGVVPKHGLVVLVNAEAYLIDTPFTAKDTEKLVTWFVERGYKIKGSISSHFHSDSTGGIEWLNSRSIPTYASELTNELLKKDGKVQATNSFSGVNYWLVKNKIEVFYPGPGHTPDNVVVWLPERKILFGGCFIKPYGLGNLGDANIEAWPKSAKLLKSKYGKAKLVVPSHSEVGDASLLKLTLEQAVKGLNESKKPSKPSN
Chain of NDM-1 (C7C422 29-270, looked up, species assumed): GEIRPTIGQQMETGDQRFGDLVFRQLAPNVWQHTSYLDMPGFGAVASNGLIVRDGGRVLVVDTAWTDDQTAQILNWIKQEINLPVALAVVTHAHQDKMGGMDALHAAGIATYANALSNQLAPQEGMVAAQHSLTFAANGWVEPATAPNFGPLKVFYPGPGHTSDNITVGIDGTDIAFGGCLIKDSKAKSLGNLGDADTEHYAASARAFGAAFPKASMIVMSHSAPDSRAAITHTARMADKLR

| SMILES | IC50 (IMP-1) | IC50 (NDM-1) | IC50 (VIM-1) | NDM1 EC30016 MITC95 [1] | VIM1 KP599644 MITC95 [2] | IMP1 SM5741 MITC95 [3] |
| --- | --- | --- | --- | --- | --- | --- |
| CC(C)[C@H](C(=O)O)[C@H](Cc1cnc(N)nc1)c1nnn[nH]1 [Example 128, (2S,3S)-4-(2-aminopyrimidin-5-yl)-2-isopropyl-3-(1H-tetrazol-5-yl)butanoic acid] | 16000 nM | 150 nM | 51 nM | 9.4 µM | 50 µM | >200 µM |
| CCC[C@H](C(=O)O)[C@H](Cc1ccc(NCCO)nc1)c1nnn[nH]1 [Example 129, (S)-2-((S)-2-(6-((2-hydroxyethyl)amino)pyridin-3-yl)-1-(1H-tetrazol-5-yl)ethyl)pentanoic acid] | 830 nM | 77 nM | 5.6 nM | 0.39 µM | 9.4 µM | 9.4 µM |
| CCC[C@H](C(=O)O)[C@H](Cc1ccc(OCCN)nc1)c1nnn[nH]1 [Example 130, (S)-2-((S)-2-(6-(2-aminoethoxy)pyridin-3-yl)-1-(1H-tetrazol-5-yl)ethyl)pentanoic acid] | 8400 nM | 900 nM | 8.3 nM | 4.7 µM | 18.8 µM | 50 µM |
| CCC[C@H](C(=O)O)[C@H](Cc1ccc(Oc2ccc(CN)cc2)nc1)c1nnn[nH]1 [Example 131, (S)-2-((S)-2-(6-(4-(aminomethyl)phenoxy)pyridin-3-yl)-1-(1H-tetrazol-5-yl)ethyl)pentanoic acid] | 200 nM | 12 nM | 1.9 nM | 0.78 µM | 9.4 µM | 6.2 µM |
| CCC[C@H](C(=O)O)[C@H](Cc1ccc(NCc2ccc(O)cc2)nc1)c1nnn[nH]1 [Example 132, (S)-2-((S)-2-(6-((4-hydroxybenzyl)amino)pyridin-3-yl)-1-(1H-tetrazol-5-yl)ethyl)pentanoic acid] | 1500 nM | 160 nM | 31 nM | 9.4 µM | 25 µM | 38 µM |
| CC(C)C[C@H](C(=O)O)[C@H](Cc1ccc2cc(NCCO)cnc2c1)c1nnn[nH]1 [Example 133, (S)-2-((S)-2-(3-((2-hydroxyethyl)amino)quinolin-7-yl)-1-(1H-tetrazol-5-yl)ethyl)-4-methylpentanoic acid] | 79 nM | 12 nM | 1.6 nM | 25 µM | 75 µM | 6.2 µM |
| CC(C)C[C@H](C(=O)O)[C@H](Cc1ccc(NCCO)nc1)c1nnn[nH]1 [Example 134, (S)-2-((S)-2-(6-((2-hydroxyethyl)amino)pyridin-3-yl)-1-(1H-tetrazol-5-yl)ethyl)-4-methylpentanoic acid] | 230 nM | 88 nM | 6.6 nM | 0.78 µM | 18.8 µM | 4.7 µM |
| CC(C)C[C@H](C(=O)O)[C@H](Cc1ccc(OCCN)nc1)c1nnn[nH]1 [Example 135, (S)-2-((S)-2-(6-(2-aminoethoxy)pyridin-3-yl)-1-(1H-tetrazol-5-yl)ethyl)-4-methylpentanoic acid] | 1600 nM | 490 nM | 6.1 nM | 6.2 µM | 25 µM | 25 µM |
| CCC[C@H](C(=O)O)[C@H](Cc1ccc(NCCO)cn1)c1nnn[nH]1 [Example 136, (S)-2-((S)-2-(5-((2-hydroxyethyl)amino)pyridin-2-yl)-1-(1H-tetrazol-5-yl)ethyl)pentanoic acid] | 6800 nM | 340 nM | 150 nM | 1.2 µM | 18.8 µM | 100 µM |
| CC(C)C[C@H](C(=O)O)[C@H](Cc1cnc(NCCO)s1)c1nnn[nH]1 [Example 137, (S)-2-((S)-2-(2-((2-hydroxyethyl)amino)thiazol-5-yl)-1-(1H-tetrazol-5-yl)ethyl)-4-methylpentanoic acid] | 300 nM | 110 nM | 3.5 nM | 6.2 µM | 37 µM | 12.5 µM |
| CC(C)[C@H](C(=O)O)[C@H](Cc1cccc(NCCO)n1)c1nnn[nH]1 [Example 138, (2S,3S)-4-(6-((2-hydroxyethyl)amino)pyridin-2-yl)-2-isopropyl-3-(1H-tetrazol-5-yl)butanoic acid] | > 20000 nM | 490 nM | 670 nM | 3.1 µM | 75 µM | >200 µM |
| CC(C)[C@H](C(=O)O)[C@H](Cc1ccc(NCCO)cn1)c1nnn[nH]1 [Example 139, (2S,3S)-4-(5-((2-hydroxyethyl)amino)pyridin-2-yl)-2-isopropyl-3-(1H-tetrazol-5-yl)butanoic acid] | 1900 nM | 56 nM | 34 nM | 0.39 µM | 12.5 µM | 38 µM |
| CC(C)[C@H](C(=O)O)[C@H](Cc1ccc(NCCN)nc1)c1nnn[nH]1 [Example 140, (2S,3S)-4-(6-((2-aminoethyl)amino)pyridin-3-yl)-2-isopropyl-3-(1H-tetrazol-5-yl)butanoic acid] | > 20000 nM | 320 nM | 8.7 nM | 1.6 µM | 12.5 µM | 75 µM |
| CC(C)[C@H](C(=O)O)[C@H](Cc1ccc(NC(CO)CO)nc1)c1nnn[nH]1 [Example 141, (2S,3S)-4-(6-((1,3-dihydroxypropan-2-yl)amino)pyridin-3-yl)-2-isopropyl-3-(1H-tetrazol-5-yl)butanoic acid] | > 20000 nM | 3600 nM | 800 nM | 12.5 µM | 150 µM | >200 µM |
| CC(C)[C@H](C(=O)O)[C@H](Cc1ccc(OCC(N)CO)nc1)c1nnn[nH]1 (stereo partly drawn) [Example 142, (2S,3S)-4-(6-(2-amino-3-hydroxypropoxy)pyridin-3-yl)-2-isopropyl-3-(1H-tetrazol-5-yl)butanoic acid] | 5000 nM | 340 nM | 130 nM | 3.1 µM | 25 µM | 50 µM |
| CCC[C@H](C(=O)O)[C@H](Cc1ccc(NCc2cc(OC)cc(OC)c2)nc1)c1nnn[nH]1 [Example 144, (S)-2-((S)-2-(6-((3,5-dimethoxybenzyl)amino)pyridin-3-yl)-1-(1H-tetrazol-5-yl)ethyl)pentanoic acid] | 370 nM | 16 nM | 15 nM | 7.8 µM | 200 µM | 62 µM |
| CC(C)C[C@H](C(=O)O)[C@H](Cc1ccc(N2CCNCC2)c(F)c1)c1nn[nH]n1 [Example 146, (S)-2-((S)-2-(3-fluoro-4-(piperazin-1-yl)phenyl)-1-(2H-tetrazol-5-yl)ethyl)-4-methylpentanoic acid] | 100 nM | 36 nM | 1.6 nM | 6.2 µM | 15.6 µM | 5.5 µM |
| CCC[C@H](C(=O)O)[C@H](Cc1ccc2ccc(N)nc2c1)c1nnn[nH]1 [Example 147, (S)-2-((S)-2-(2-aminoquinolin-7-yl)-1-(1H-tetrazol-5-yl)ethyl)pentanoic acid] | 4500 nM | 110 nM | 0.85 nM | 3.1 µM | 6.2 µM | 100 µM |
| CCC[C@H](C(=O)O)[C@H](Cc1ccc2ncc(N)cc2c1)c1nnn[nH]1 [Example 148, 3-amino-6-((2S,3S)-3-carboxy-2-(1H-tetrazol-5-yl)hexyl)quinolin-1-ium] | 400 nM | 25 nM | 0.94 nM | 25 µM | 25 µM | 12.5 µM |
| CCC[C@H](C(=O)O)[C@H](Cc1ccc(NCCS(N)(=O)=O)cn1)c1nnn[nH]1 [Example 149, 2-((2S,3S)-3-carboxy-2-(1H-tetrazol-5-yl)hexyl)-5-((2-sulfamoylethyl)amino)pyridin-1-ium] | 1600 nM | 170 nM | 98 nM | 0.39 µM | 18.8 µM | 38 µM |
| CCC[C@H](C(=O)O)[C@H](Cc1csc(N)n1)c1nnn[nH]1 [Example 150, 4-((2S,3S)-3-carboxy-2-(1H-tetrazol-5-yl)hexyl)thiazol-2-aminium] | > 20000 nM | 480 nM | 300 nM | 1.6 µM | 25 µM | >200 µM |
